Patent publication US12157746B2, “Tetrahydro-1H-pyrazino[2,1-a]isoindolylquinoline compounds for the treatment of autoimmune disease” (F. HOFFMANN-LA ROCHE AG, priority 2018, dated 2024)

molecular target: T1, human TLR7 (Homo sapiens, UniProt Q9NYK1); test: HEK293-Blue-hTLR-7 cells assay; format: cell-based; details: HEK293-Blue-hTLR7 cells, R848 stimulation, 20 hrs, SEAP reporter; read-out: HEK/hTLR7 IC50
T1 sequence (Q9NYK1 27-1049): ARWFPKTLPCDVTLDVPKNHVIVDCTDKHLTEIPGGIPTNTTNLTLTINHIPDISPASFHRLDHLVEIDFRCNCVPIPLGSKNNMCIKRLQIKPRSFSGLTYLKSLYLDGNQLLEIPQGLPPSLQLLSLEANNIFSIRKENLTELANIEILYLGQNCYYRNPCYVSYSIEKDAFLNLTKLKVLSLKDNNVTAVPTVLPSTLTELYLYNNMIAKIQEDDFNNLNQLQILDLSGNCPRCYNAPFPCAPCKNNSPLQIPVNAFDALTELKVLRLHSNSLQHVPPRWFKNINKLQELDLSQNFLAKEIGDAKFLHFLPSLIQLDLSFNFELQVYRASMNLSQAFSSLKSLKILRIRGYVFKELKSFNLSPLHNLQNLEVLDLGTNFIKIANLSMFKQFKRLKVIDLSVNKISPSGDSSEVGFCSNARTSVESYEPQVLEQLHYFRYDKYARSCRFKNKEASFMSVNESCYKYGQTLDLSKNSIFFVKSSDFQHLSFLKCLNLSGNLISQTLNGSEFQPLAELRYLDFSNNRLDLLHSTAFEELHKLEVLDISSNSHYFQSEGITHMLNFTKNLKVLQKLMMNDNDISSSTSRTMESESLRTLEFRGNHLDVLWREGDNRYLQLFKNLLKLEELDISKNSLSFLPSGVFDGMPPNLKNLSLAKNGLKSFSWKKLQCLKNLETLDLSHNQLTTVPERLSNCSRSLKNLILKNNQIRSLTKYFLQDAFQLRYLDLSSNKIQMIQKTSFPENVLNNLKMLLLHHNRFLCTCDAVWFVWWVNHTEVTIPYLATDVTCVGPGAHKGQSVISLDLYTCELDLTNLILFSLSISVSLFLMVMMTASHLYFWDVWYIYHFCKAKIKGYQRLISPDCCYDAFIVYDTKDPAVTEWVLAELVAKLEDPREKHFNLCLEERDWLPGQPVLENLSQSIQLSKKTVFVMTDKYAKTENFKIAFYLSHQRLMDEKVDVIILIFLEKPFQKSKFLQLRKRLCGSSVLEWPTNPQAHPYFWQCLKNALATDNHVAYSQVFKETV
Source text: HEK293-Blue-hTLR-7 Cells Assay:
A stable HEK293-Blue-hTLR-7 cell line was purchased from InvivoGen (Cat. #: hkb-htlr7, San Diego, California, USA). These cells were originally designed for studying the stimulation of human TLR7 by monitoring the activation of NF-κB. A SEAP (secreted embryonic alkaline phosphatase) reporter gene was placed under the control of the IFN-β minimal promoter fused to five NF-κB and AP-1-binding sites. The SEAP was induced by activating NF-κB and AP-1 via stimulating HEK-Blue hTLR7 cells with TLR7 ligands. Therefore the reporter expression was declined by TLR7 antagonist under the stimulation of a ligand, such as R848 (Resiquimod), for incubation of 20 hrs. The cell culture supernatant SEAP reporter activity was determined using QUANTI-Blue™ kit (Cat. #: rep-qb1, Invivogen, San Diego, Ca. USA) at a wavelength of 640 nm, a detection medium that turns purple or blue in the presence of alkaline phosphatase.
HEK293-Blue-hTLR7 cells were incubated at a density of 250,000˜450,000 cells/mL in a volume of 170 μL in a 96-well plate in Dulbecco's Modified Eagle's medium (DMEM) containing 4.5 g/L glucose, 50 U/mL penicillin, […], […], 2 mM L-glutamine, 10% (v/v) heat-inactivated fetal bovine serum with addition of 20 μL test compound 1n a serial dilution in the presence of final DMSO at 1% and 10 μL of 20 uM R848 in above DMEM, perform incubation under 37° C. in a CO2 incubator for 20 hrs. Then 20 μL of the supernatant from each well was incubated with 180 μL Quanti-blue substrate solution at 37° C. for 2 hrs and the absorbance was read at 620-655 nm using a spectrophotometer. The signaling pathway that TLR7 activation leads to downstream NF-κB activation has been widely accepted, and therefore similar reporter assay was modified for evaluating TLR7 antagonist.

Row | Compound | IC50 [nM]
1 | C[C@@H]1CN(c2ccc(C#N)c3ncccc23)C[C@@H]2c3ccc(N4C[C@@H](N)[C@H](F)C4)cc3CN12 [Example 48, 5-[(4R,10bS)-8-[(3R,4R)-3-amino-4-fluoro-pyrrolidin-1-yl]-4-methyl-3,4,6,10b-tetrahydro-1H-pyrazino[2,1-a]isoindol-2-yl]quinoline-8-carbonitrile] | 5.8
2 | C[C@@H]1CN(c2ccc(C#N)c3ncccc23)C[C@@H]2c3cccc(N4CCNCC4)c3CN12 [Example 8, 5-[(4R,10bS)-4-methyl-7-piperazin-1-yl-3,4,6,10b-tetrahydro-1H-pyrazino[2,1-a]isoindol-2-yl]quinoline-8-carbonitrile] | < 3.2
3 | C[C@@H]1CN(c2ccc(C#N)c3ncccc23)C[C@@H]2c3ccc(N4CCOC5(CNC5)C4)cc3CN12 [Example 24, 5-[(4R,10bS)-4-methyl-8-(5-oxa-2,8-diazaspiro[3.5]nonan-8-yl)-3,4,6,10b-tetrahydro-1H-pyrazino[2,1-a]isoindol-2-yl]quinoline-8-carbonitrile] | 3.4
4 | C[C@@H]1CN(c2ccc(C#N)c3ncccc23)C[C@@H]2c3ccc(N4C[C@@H](F)[C@@H](N)C4)cc3CN12 [Example 46, 5-[(4R,10bS)-8-[(3S,4R)-3-amino-4-fluoro-pyrrolidin-1-yl]-4-methyl-3,4,6,10b-tetrahydro-1H-pyrazino[2,1-a]isoindol-2-yl]quinoline-8-carbonitrile] | 15.6
5 | CN[C@H]1CN(c2ccc3c(c2)CN2[C@H](C)CN(c4ccc(C#N)c5ncccc45)C[C@H]32)C[C@@H]1O [Example 42, 5-[(4R,10bS)-8-[(3S,4S)-3-hydroxy-4-(methylamino)pyrrolidin-1-yl]-4-methyl-3,4,6,10b-tetrahydro-1H-pyrazino[2,1-a]isoindol-2-yl]quinoline-8-carbonitrile] | < 3.2
6 | C[C@@H]1CN(c2ccc(C#N)c3ncccc23)C[C@@H]2c3ccc(N4CCNCC(C)(O)C4)cc3CN12 (stereo partly drawn) [Example 55, 5-[(4R,10S)-8-(6-hydroxy-6-methyl-1,4-diazepan-1-yl)-4-methyl-3,4,6,10b-tetrahydro-1H-pyrazino[2,1-a]isoindol-2-yl]quinoline-8-carbonitrile] | 6.5
7 | C[C@@H]1CN(c2ccc(C#N)c3ncccc23)C[C@@H]2c3ccc(N4C[C@@H](N)[C@](C)(O)C4)cc3CN12 [Example 45, 5-[(4R,10bS)-4-methyl-8-[trans-(3R,4R)-4-amino-3-hydroxy-3-methyl-pyrrolidin-1-yl]-3,4,6,10b-tetrahydro-1H-pyrazino[2,1-a]isoindol-2-yl]quinoline-8-carbonitrile] | 4.5
8 | C[C@@H]1CN(c2ccc(C#N)c3ncccc23)C[C@@H]2c3ccc(N4C[C@@H](N)[C@@H](F)C4)cc3CN12 [Example 47, 5-[(4R,10bS)-8-[(3R,4S)-3-amino-4-fluoro-pyrrolidin-1-yl]-4-methyl-3,4,6,10b-tetrahydro-1H-pyrazino[2,1-a]isoindol-2-yl]quinoline-8-carbonitrile] | 4.8
9 | COC1CN(c2ccc3c(c2)CN2C3CN(c3ccc(C#N)c4ncccc34)C[C@H]2C)CC1N (single isomer, unassigned) [Example 16B] | 4.5
10 | C[C@@H]1CN(c2ccc(C#N)n3nccc23)C[C@@H]2c3ccc(N4CC[C@@](C)(N)C4)cc3CN12 [Example 103, 4-[(4R,10bS)-8-[(3R)-3-amino-3-methyl-pyrrolidin-1-yl]-4-methyl-3,4,6,10b-tetrahydro-1H-pyrazino[2,1-a]isoindol-2-yl]pyrazolo[1,5-a]pyridine-7-carbonitrile] | 25.8
11 | C[C@@H]1CN(c2ccc(C#N)c3ncccc23)C[C@@H]2c3ccc(N4C[C@@H](N)[C@H](O)C4)cc3CN12 (single isomer, unassigned) [Example 40B] | 4.3
12 | C[C@@H]1CN(c2ccc(C#N)c3ncccc23)C[C@@H]2c3ccc(N4CCN[C@H](CO)C4)cc3CN12 [Example 12, 5-[(4R,10bS)-8-[(3S)-3-(hydroxymethyl)piperazin-1-yl]-4-methyl-3,4,6,10b-tetrahydro-1H-pyrazino[2,1-a]isoindol-2-yl]quinoline-8-carbonitrile] | < 3.2
13 | C[C@@H]1CN(c2ccc(C#N)c3ncccc23)C[C@@H]2c3ccc(N4CC[C@@H](N)C4)cc3CN12 [Example 20, 5-[(4R,10bS)-8-[(3R)-3-aminopyrrolidin-1-yl]-4-methyl-3,4,6,10b-tetrahydro-1H-pyrazino[2,1-a]isoindol-2-yl]quinoline-8-carbonitrile] | 3.4
14 | [2H]c1ccc2c(N3C[C@@H](C)N4Cc5cc(N6CC7CNCC(C6)O7)ccc5[C@H]4C3)ccc(C#N)c2n1 [Example 93, 5-[(4R,10bS)-4-methyl-8-(9-oxa-3,7-diazabicyclo[3.3.1]nonan-3-yl)-3,4,6,10b-tetrahydro-1H-pyrazino[2,1-a]isoindol-2-yl]-2-deuterio-quinoline-8-carbonitrile] | 3.8
15 | C[C@@H]1CN(c2ccc(C#N)c3ncccc23)C[C@@H]2c3ccc(N[C@H]4CNC[C@H]4F)cc3CN12 [Example 30, 5-[(4R,10bS)-8-[[(3S,4R)-4-fluoropyrrolidin-3-yl]amino]-4-methyl-3,4,6,10b-tetrahydro-1H-pyrazino[2,1-a]isoindol-2-yl]quinoline-8-carbonitrile] | < 3.2
16 | C[C@@H]1CN(c2ccc(C#N)c3ncccc23)C[C@@H]2c3ccc(C4CNC4)cc3CN12 [Example 29, 5-[(4R,10bS)-8-(azetidin-3-yl)-4-methyl-3,4,6,10b-tetrahydro-1H-pyrazino[2,1-a]isoindol-2-yl]quinoline-8-carbonitrile] | < 3.2
17 | [2H]c1ccc2c(N3C[C@@H](C)N4Cc5cc(N[C@H]6CNC[C@H]6F)ccc5[C@H]4C3)ccc(C#N)c2n1 [Example 91, 5-[(4R,10bS)-8-[[(3S,4R)-4-fluoropyrrolidin-3-yl]amino]-4-methyl-3,4,6,10b-tetrahydro-1H-pyrazino[2,1-a]isoindol-2-yl]-2-deuterio-quinoline-8-carbonitrile] | 1.7
18 | CO[C@@H]1CN(c2ccc3c(c2)CN2[C@H](C)CN(c4ccc(C#N)n5nccc45)C[C@H]32)C[C@H]1N [Example 94, 4-[(4R,10bS)-8-[(3R,4R)-3-amino-4-methoxy-pyrrolidin-1-yl]-4-methyl-3,4,6,10b-tetrahydro-1H-pyrazino[2,1-a]isoindol-2-yl]pyrazolo[1,5-a]pyridine-7-carbonitrile] | 13.7
19 | C[C@@H]1CN(c2ccc(C#N)c3ncccc23)C[C@@H]2c3ccc(N4CCOC5CNCC54)cc3CN12 (stereo partly drawn) [Example 52, 5-[(4R,10bS)-8-(3,4a,5,6,7,7a-hexahydro-2H-pyrrolo[3,4-b][1,4]oxazin-4-yl)-4-methyl-3,4,6,10b-tetrahydro-1H-pyrazino[2,1-a]isoindol-2-yl]quinoline-8-carbonitrile] | 8.5
20 | C[C@@H]1CN(c2ccc(C#N)c3ncccc23)C[C@@H]2c3ccc(N4CCNC[C@@H](O)C4)cc3CN12 [Example 53B, 5-[(4R,10bS)-8-[(6R)-6-hydroxy-1,4-diazepan-1-yl]-4-methyl-3,4,6,10b-tetrahydro-1H-pyrazino[2,1-a]isoindol-2-yl]quinoline-8-carbonitrile] | 8.9
